Where two headings read alike, the source gives them in different places.
Tests used:
[1] = system: IL-6 secretion; test: Inhibition of induced IL-6 secretion in human PBMCs (CBA); format: cell-based; details: PBMC
Protocol: (§1) The effect of PROTAC small molecules on inflammatory factors in PBMCs downstream of IRAK4 induced by TLR and IL-1 was detected based on the CBA (cytometric bead array) method.
(§2) Step 2: The density of PBMCs was adjusted to 1 E6/mL, and 150 µL of PBMCs in 1640 complete medium were seeded into a 96-well plate, followed by incubation at 37°C for 1 hour.
(§3) Step 3: 50 µL of serially diluted small molecule (working concentration: 10000 nM, 1:3 dilution) drugs were inoculated into the plate in a 37°C incubator for 8 hours.
(§4) Step 4: 10 µL of stimulants were added respectively, with final concentrations of 100 ng/mL for LPS, 1 µg/mL for R848, and 100 ng/mL for IL-1β.
(§5) Step 5: CBA assay. The concentrations of IL-6 and TNF-α in the cell culture supernatant were determined using Hu IL-6 CBA Flex Set A7 and Hu TNF- CBA Flex Set D9.
(§6) Step 6: Standard samples were prepared: 2500 pg/mL, 1250 pg/mL,...0. A 1:2 serial dilution was performed to obtain 10 concentrations.
(§7) Step 7: The mixed capture beads were resuspended in capture bead diluent (1:50), and cell culture supernatant (50 µL) was added, followed by incubation at room temperature for 10 minutes.
(§8) Step 8: The detection reagent prepared with detection diluent was added, and the mixture was incubated in the dark at room temperature for 3 hours. At the end of incubation, the samples were washed once with wash buffer and resuspended for detection.
(§9) The concentrations of IL-6 and TNFα were calculated using the standard curve method. Data presentation and IC50 calculation were performed using Prism 8.0.2.

[2] = Dog pharmacokinetics, oral gavage (Experiment 3); format: in vivo; details: Beagle dogs, oral gavage 2.5 mg/kg, plasma
Protocol: Healthy Beagle dogs, male, weighing about 8-10 kg, 3 animals per group.
The animals were not fasted and had free access to water.
Venous blood (0.5-0.8 mL) was collected at 15 minutes, 30 minutes, 1 hour, 2 hours, 4 hours, 8 hours, and 24 hours after oral gavage administration, placed in K2EDTA tubes, and centrifuged at 4°C to separate plasma. The concentration of the compound in plasma was determined by liquid chromatography-tandem mass spectrometry.
The main pharmacokinetic parameters were calculated using WinNonlin. […] Table 8. Pharmacokinetic parameters of some compounds of the present disclosure administered orally to dogs

[3] = system: TNFα secretion; test: Inhibition of induced TNFα secretion in human PBMCs (CBA); format: cell-based; details: PBMC
Protocol: as §1, §2, §3, §4, §5, §6, §7, §8, §9

[4] = Mouse pharmacokinetics, oral (Experiment 1); format: in vivo, C57BL/6 mice; details: mice, PO 100 mg/kg, fasted overnight, plasma
Protocol: C57BL/6 mice were used as test animals to study the pharmacokinetic behavior of the compounds of the present disclosure in mouse plasma after oral administration at a dose of 100 mg/kg.
C57BL/6, male, transferred from the animal repository of the laboratory institution (999M-018).
Three male C57BL/6 mice were fasted overnight (10-14 hours) with free access to water one day before administration. The mice were fed 4 hours after administration. The dose for PO administration was 100 mg/kg, with an administration volume of 20 mL/kg.
After administration, blood samples (0.03 mL) were collected from the mice via venipuncture at 0.083, 0.25, 0.5, 1, 2, 4, 8, and 24 hours. The samples were placed in EDTA-K2 tubes and centrifuged at 6800 rpm for 5 minutes at 2-8°C. The plasma was separated and stored at -80°C.
• 1) 10 µL of plasma sample was added to 200 µL of methanol for precipitation. After mixing, the mixture was centrifuged at 18000 g for 10 minutes. • 2) The processed supernatant solution was taken for LC/MS/MS analysis to determine the concentration of the test compound.
• Liquid phase conditions: Shimadzu LC-30AD pump • Mass spectrometry conditions: AB Sciex API 5500 mass spectrometer • Chromatographic column: Phenomenex Kinetex 2.6 µm C18 50 3.0 mm • Mobile phase: Solution A was 0.1% formic acid in water, and solution B was 0.1% formic acid in acetonitrile • Flow rate: 0.6 mL/min • Elution time: Gradient elution for 0-1.6 minutes.
The main pharmacokinetic parameters were calculated using WinNonlin 8.0.

[5] = target: T1, IRAK4 (Homo sapiens, UniProt Q9NWZ3); test: Degradation of IRAK4 in SU-DHL-2 cells (flow cytometry); format: cell-based; design: The degradation level of IRAK4 protein in SU-DHL-2 cell line by the compounds was detected by flow cytometry; endogenous in cells; host or cells: SU-DHL-2; OCI-LY3; details: SU-DHL-2 cells, 24 hours incubation; read-out: SU-DHL-2 DC50
T1 sequence (Q9NWZ3 1-460): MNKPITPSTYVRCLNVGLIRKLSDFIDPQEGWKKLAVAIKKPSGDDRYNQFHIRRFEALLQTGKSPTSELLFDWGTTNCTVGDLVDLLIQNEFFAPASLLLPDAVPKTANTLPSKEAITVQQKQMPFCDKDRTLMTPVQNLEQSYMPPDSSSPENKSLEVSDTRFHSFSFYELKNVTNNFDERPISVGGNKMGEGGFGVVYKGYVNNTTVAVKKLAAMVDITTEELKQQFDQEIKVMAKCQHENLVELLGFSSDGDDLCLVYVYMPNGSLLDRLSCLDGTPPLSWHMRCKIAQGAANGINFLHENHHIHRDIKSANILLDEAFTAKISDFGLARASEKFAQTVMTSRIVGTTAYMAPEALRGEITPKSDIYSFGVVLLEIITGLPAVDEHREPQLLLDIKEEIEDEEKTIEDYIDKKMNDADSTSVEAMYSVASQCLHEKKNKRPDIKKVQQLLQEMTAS
Protocol: The degradation level of IRAK4 protein in SU-DHL-2 cell line by the compounds was detected by flow cytometry.
Step 2: On day 1, the cells were seeded at a density of 2 × 10^5 cells per well in 100 µL in a 96-well plate. The compounds were dissolved in DMSO to a final concentration of 10 mM, and then diluted with culture medium at a 1:5 concentration gradient to prepare 10 concentrations. The diluted solutions were added to the cells to obtain a maximum final concentration of 2 µM. Wells containing cells treated with 0.1% DMSO served as the […] The cells were incubated at 37°C in a 5% CO2 incubator for 24 hours.
Step 3: After centrifugation, the cells were washed with FACS buffer. The cells were stained for viability discrimination using the LIVE/DEAD™ Fixable Blue Dead Cell Stain Kit, and surface staining of monocytes was performed with PE Mouse Anti-Human CD14, followed by incubation at 4°C for 30 minutes.
Step 4: After centrifugation, the cells were washed with FACS buffer. Fix buffer I, equal in volume to the cultured cells, was added, and the cells were fixed at 37°C for 10 minutes.
Step 5: After centrifugation, the cells were washed with FACS buffer. 150 µL of Perm III reagent was added, and the cells were incubated at 4°C for 30 minutes to permeabilize the membranes. After centrifugation, the cells were washed with FACS buffer.
(§10) Flow cytometry analysis was performed using a flow cytometer.
The flow cytometry data were analyzed using Flowjo software. Data presentation and DC50 (half-maximal degradation concentration) calculation were performed using Prism 8.0.2 (GraphPad).

[6] = target: T1, IRAK4; test: Degradation of IRAK4 in monocytes of human PBMCs (flow cytometry); format: cell-based; design: endogenous in cells; details: human PBMC monocytes, 24 hours incubation
Protocol: The degradation level of IRAK4 in monocytes of human peripheral blood mononuclear cells (hPBMCs) was detected by flow cytometry.
On day 1, the cells were seeded at a density of 2 × 10^5 cells per well in 100 µL in a 96-well plate.
The compounds were dissolved in DMSO to a final concentration of 10 mM, and then diluted with culture medium at a 1:5 concentration gradient to prepare 10 concentrations. The diluted solutions were added to the cells to obtain a maximum final concentration of 2 µM. Wells containing cells treated with 0.1% DMSO served as the positive control
The cells were incubated at 37°C in a 5% CO2 incubator for 24 hours.
The cells were stained for viability discrimination using the LIVE/DEAD™ Fixable Blue Dead Cell Stain Kit, and surface staining of monocytes was performed with PE Mouse Anti-Human CD14, followed by incubation at 4°C for 30 minutes.
Fix buffer I, equal in volume to the cultured cells, was added, and the cells were fixed at 37°C for 10 minutes.
150 µL of Perm III reagent was added, and the cells were incubated at 4°C for 30 minutes to permeabilize the membranes.
as §10
The flow cytometry data were analyzed using Flowjo software. Data presentation and DC50 calculation were performed using Prism 8.0.2 (GraphPad).

[7] = mice, 8 hours after last administration
Protocol: Experimental animals: SPF-grade male C57BL/6J mice aged 6-8 weeks.
Preparation of compound: 10% DMSO + 50% PEG400 + 40% sterile water for injection. The compound was dissolved in DMSO, followed by the addition of PEG400 and sterile water for injection, and the solution was adjusted to clarity with 6N hydrochloric acid.
Compound administration and IL-33 inflammatory induction: The mice were randomly grouped according to body weight and orally administered with the compound at final doses of 15 mg/kg, 50 mg/kg, and 150 mg/kg, twice daily. At 4 hours after the last administration of the compound, the mice were intraperitoneally injected with 1 µg/100 µL PBS of IL-33 for inflammatory induction.
Termination, sample collection, and data: Plasma, peritoneal lavage fluid, and spleen were collected for subsequent sample index detection.
The experiment was terminated 8 hours after the last administration. The mice were anesthetized, and cardiac blood was collected. The blood samples were anticoagulated with EDTA-K2, centrifuged at 3500 rpm for 15 minutes, and the upper plasma was collected.

[8] = target: hERG potassium channel (Homo sapiens, UniProt Q12809); test: Inhibition of hERG potassium channel, whole-cell manual patch clamp in CHO-hERG cells; details: @ 1 µM test compound
Chain of hERG potassium channel (Q12809 whole entry): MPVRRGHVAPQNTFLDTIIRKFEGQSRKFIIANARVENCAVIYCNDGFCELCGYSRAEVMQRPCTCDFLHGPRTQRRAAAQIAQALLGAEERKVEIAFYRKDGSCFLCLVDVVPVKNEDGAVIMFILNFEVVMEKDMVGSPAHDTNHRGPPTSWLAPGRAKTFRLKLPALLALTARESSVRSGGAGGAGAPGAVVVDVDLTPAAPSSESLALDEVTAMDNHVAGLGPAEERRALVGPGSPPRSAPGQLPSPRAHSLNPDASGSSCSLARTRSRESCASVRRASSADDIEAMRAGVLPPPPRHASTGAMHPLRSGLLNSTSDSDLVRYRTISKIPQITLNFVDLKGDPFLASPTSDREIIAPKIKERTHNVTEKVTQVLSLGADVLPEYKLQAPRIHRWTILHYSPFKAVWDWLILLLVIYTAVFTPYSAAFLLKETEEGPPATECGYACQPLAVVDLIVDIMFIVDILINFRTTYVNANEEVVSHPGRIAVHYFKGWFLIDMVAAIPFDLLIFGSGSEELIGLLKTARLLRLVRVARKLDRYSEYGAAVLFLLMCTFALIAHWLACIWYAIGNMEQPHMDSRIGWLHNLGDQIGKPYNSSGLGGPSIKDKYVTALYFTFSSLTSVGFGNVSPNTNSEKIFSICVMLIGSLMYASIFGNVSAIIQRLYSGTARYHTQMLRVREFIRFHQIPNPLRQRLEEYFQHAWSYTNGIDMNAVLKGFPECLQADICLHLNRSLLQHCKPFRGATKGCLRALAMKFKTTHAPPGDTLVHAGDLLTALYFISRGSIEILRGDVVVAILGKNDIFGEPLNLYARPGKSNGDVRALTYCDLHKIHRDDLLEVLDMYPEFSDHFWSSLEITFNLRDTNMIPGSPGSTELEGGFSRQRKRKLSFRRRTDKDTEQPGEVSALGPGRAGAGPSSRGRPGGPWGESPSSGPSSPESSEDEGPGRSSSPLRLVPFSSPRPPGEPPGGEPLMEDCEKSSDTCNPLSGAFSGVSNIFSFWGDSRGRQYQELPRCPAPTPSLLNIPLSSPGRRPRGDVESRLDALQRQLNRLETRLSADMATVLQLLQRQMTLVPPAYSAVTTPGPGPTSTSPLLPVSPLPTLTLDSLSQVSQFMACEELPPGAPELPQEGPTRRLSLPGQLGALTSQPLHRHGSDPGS
Protocol: The effects of compounds on hERG potassium channel (human Ether-a-go-go Related Gene potassium channel) currents were tested using the whole-cell manual voltage-clamp electrophysiological method.
CHO cells stably expressing hERG were cultured in cell culture dishes with a diameter of 35 mm and incubated at 37°C in a 5% CO2 incubator. The cells were passaged at a ratio of 1:5 every 48 hours. The culture medium was formulated as follows: 90% F12 (Invitrogen), 10% fetal bovine serum (Gibco), 100 g/mL G418 (Invitrogen), and 100 g/mL Hygromycin B (Invitrogen). On the day of the experiment, the cell culture medium was aspirated, and the cells were rinsed once with extracellular solution. […] The digestion solution was aspirated, and the cells were resuspended in extracellular solution and then transferred to experimental dishes for electrophysiological recording for later use.
On the day of testing, the compounds were prepared as 10 mM stock solutions in DMSO, then diluted to 1 mM with DMSO, and further diluted 1000-fold with extracellular solution to obtain the desired final test concentration.
hERG potassium channel currents were recorded at room temperature using the whole-cell patch-clamp technique in CHO cells stably expressing the hERG channel. The glass microelectrode was prepared by pulling the glass electrode blank (BF150-86-10, Sutter) with a puller, and the tip resistance after filling with the internal electrode solution was about 2-5 MΩ. The glass microelectrode was inserted into the amplifier probe and then connected to the patch-clamp amplifier. The clamping voltage and data recording were controlled and recorded by pClamp software via a computer, with a sampling frequency of 10 kHz and a filtering frequency of 2 kHz. After obtaining the whole-cell recording, cells were clamped at -100 mV. The hERG potassium current (IhERG) was evoked by applying a 2 s depolarizing voltage step from -100 mV to +20 mV, followed by repolarization to -50 mV for 1 s before returning to -100 mV. […]
Data were analyzed and processed using pClamp, GraphPad Prism 8 and Excel software. […]

[9] = IL-1β 100 ng/mL, read-out: IC50 of compounds against induced secretion, IL-6, IL-1β
[10] = LPS 100 ng/mL, read-out: IC50 of compounds against induced secretion, IL-6, LPS
[11] = R848 1 µg/mL, read-out: IC50 of compounds against induced secretion, IL-6, R848
[12] = IL-1β 100 ng/mL, read-out: IC50, TNFα secretion induced by IL-1β
[13] = LPS 100 ng/mL, read-out: IC50, TNFα secretion induced by LPS
[14] = R848 1 µg/mL, read-out: IC50, TNFα secretion induced by R848

Cn1c(=O)n(C2CCC(=O)NC2=O)c2cccc(C#CCOC3CCN(C(=O)N4CCC5(CC4)CC(n4cc(NC(=O)c6cnn7ccc(N8C[C@H]9C[C@@H]8CO9)nc67)c(C(F)F)n4)C5)CC3)c21 (stereo partly drawn) [Example 13]
IC50 [1, 9]: 13.2 nM | IC50 [1, 10]: 19.7 nM | IC50 [1, 11]: 10 nM | AUC(0-t) at 24 h [2]: 521 ng·h/mL | Cmax [2]: 102 ng/mL | MRT inf [2]: 4.5 h | half-life [2]: 2.1 h | IC50 [3, 12]: 13 nM | IC50 [3, 13]: 22.3 nM | IC50 [3, 14]: 20 nM | AUC(0-inf) [4]: 19200 ng·h/mL | AUC(0-t) at 24 h [4]: 16300 ng·h/mL | Cmax [4]: 2160 ng/mL | MRT inf [4]: 10.9 h | Tmax [4]: 1 h | half-life [4]: 7.6 h

Cn1c(=O)n(C2CCC(=O)NC2=O)c2cccc(C#CCO[C@H]3CC[C@H](CN4CCC5(CC4)CC(n4cc(NC(=O)c6cnn7ccc(N8C[C@H]9C[C@@H]8CO9)nc67)c(C(F)F)n4)C5)CC3)c21 (stereo partly drawn) [Example 31]
IC50 [1, 9]: 9.3 nM | IC50 [1, 10]: 4.6 nM | IC50 [1, 11]: 0.9 nM | AUC(0-t) at 24 h [2]: 198 ng·h/mL | Cmax [2]: 15 ng/mL | MRT inf [2]: 12 h | half-life [2]: 8 h | IC50 [3, 12]: 2.1 nM | IC50 [3, 13]: 7.7 nM | IC50 [3, 14]: 8.2 nM | AUC(0-inf) [4]: 5460 ng·h/mL | AUC(0-t) at 24 h [4]: 4890 ng·h/mL | Cmax [4]: 364 ng/mL | MRT inf [4]: 10.4 h | Tmax [4]: 3.3 h | half-life [4]: 7.3 h

Cn1c(=O)n(C2CCC(=O)NC2=O)c2cccc(C#CC(C)(C)N3CCC(C(=O)N4CCC5(CC4)CC(n4cc(NC(=O)c6cnn7ccc(N8C[C@H]9C[C@@H]8CO9)nc67)c(C(F)F)n4)C5)CC3)c21 (stereo partly drawn) [Example 56]
DC50 [5]: 5 nM | DC50 [6]: 1.1 nM

Cn1c(=O)n(C2CCC(=O)NC2=O)c2cccc(C#CCOC3CCN(C[C@H]4CC[C@H](n5cc(NC(=O)c6cnn7ccc(N8C[C@H]9C[C@@H]8CO9)nc67)c(C(F)F)n5)CC4)CC3)c21 (stereo partly drawn) [KT-474, reference compound]
IC50 [1, 9]: 18 nM | IC50 [1, 10]: 41 nM | IC50 [1, 11]: 14 nM | C8hr Plasma ([7]; PO 15 mpk twice daily): 100 ng/mL | C8hr Spleen ([7]; PO 15 mpk twice daily): 896 ng/mL | C8hr Plasma ([7]; PO 50 mpk twice daily): 262 ng/mL | C8hr Spleen ([7]; PO 50 mpk twice daily): 1740 ng/mL | C8hr Plasma ([7]; PO 150 mpk twice daily): 578 ng/mL | C8hr Spleen ([7]; PO 150 mpk twice daily): 7262 ng/mL | AUC(0-t) at 24 h [2]: 380 ng·h/mL | Cmax [2]: 31 ng/mL | MRT inf [2]: 10.3 h | half-life [2]: 6.7 h | IC50 [3, 12]: 13 nM | IC50 [3, 13]: 31 nM | IC50 [3, 14]: 52 nM | hERG (inhibition%) [8]: 47% @ 1 µM
